The record followed here is patent US20240116922A1, “IMIDAZO[1,2-A]PYRIDINE DERIVATIVES AS IRAK4 INHIBITORS AND THEIR USE IN THE TREATMENT OF DISEASE” (BIOGEN MA INC., priority 2020, published 2024).

The target in one data set is IRAK4 (Homo sapiens (Human), UniProt Q9NWZ3). Description: IRAK4 MSD biochemical assay (2-hour 1 mM ATP). Conditions: 0.1 nM IRAK4, 1 mM ATP, 2 hour at room temperature.
Data set [1] in a line: Kinetic solubility assay (CLND), pH 6.8. The format is physicochemical. The note with it: aqueous buffer, kinetic from dmso stock; potassium phosphate buffer pH 6.8, 2% DMSO, 24 hours at ambient temperature.
Data set [2] in a line: Kpuu assay (in vivo brain-to-plasma unbound partition). The note with it: brain (unbound) versus plasma (unbound); intravenous infusion 4 to 24 h; unbound brain/plasma ratio; read-out: Brain Kpu, u.
Method: For the brain-to-plasma partition coefficient (Kp) evaluation, a dosing solution was intravenously infused into animals at a constant flow rate for 4 to 24 h. Blood samples were serially collected during infusion, and CSF and brain samples were harvested at the end of infusion.
Tissue samples were typically homogenized in phosphate buffer saline (PBS) using a bead ruptor.
CSF samples were typically diluted with 8% BSA in PBS to prevent from non-specific binding. Artificial CSF (aCSF) is used as the surrogate matrix.
Calibration curves were prepared by spiking the analyte(s) into blank matrices, which were processed together with plasma, tissue homogenate and/or CSF samples by protein precipitation using a proper organic solvent (e.g. acetonitrile and methanol) containing generic analogue internal standards (e.g. verapamil, chrysin and glyburide). Matrix matching was used when analyzing multiple matrices in the same run. Samples above the upper limit of quantitation (ULOQ) needed to be diluted into the calibration range using either a pre-extraction or post-extraction dilution approach.
Processed samples were analyzed by LC-MS/MS using a proper method performing within the acceptable sensitivity, selectivity, precision and accuracy. For an analytical run to be accepted, over 75% of the calibration standards in the dual calibration curves needed to be within 20% of the nominal concentrations.
Brain concentrations were compared against plasma concentrations at the corresponding timepoint for the calculation of partition coefficient (Kp).
Unbound drug partition coefficient (Kpuu), defined as the ratio of unbound drug partition across the blood-brain barrier, was calculated using the equation below:
[formula] • Cb: measured total drug concentration in brain • Fub: unbound drug fraction in brain • Cp: measured total drug concentration in plasma • Fup: unbound drug fraction in plasma
The unbound fraction of the test compound was determined based on the protocols described below.
% Free=(PAR of buffer side/PAR of plasma side)*100 • PAR—Peak area ratio (PAR) • Fu % Free. 100 • Fu=fraction unbound
A further data set concerns the target MDR1 (Homo sapiens (Human), UniProt P08183). Description: in vitro. The note with it: MDCK-MDR1.

Molecules are shown by their SMILES. In brackets after ≈: the same amount, converted by molar mass. Structures can show the parent of a compound that is named as a salt.

Chain of MDR1 (P08183 whole entry): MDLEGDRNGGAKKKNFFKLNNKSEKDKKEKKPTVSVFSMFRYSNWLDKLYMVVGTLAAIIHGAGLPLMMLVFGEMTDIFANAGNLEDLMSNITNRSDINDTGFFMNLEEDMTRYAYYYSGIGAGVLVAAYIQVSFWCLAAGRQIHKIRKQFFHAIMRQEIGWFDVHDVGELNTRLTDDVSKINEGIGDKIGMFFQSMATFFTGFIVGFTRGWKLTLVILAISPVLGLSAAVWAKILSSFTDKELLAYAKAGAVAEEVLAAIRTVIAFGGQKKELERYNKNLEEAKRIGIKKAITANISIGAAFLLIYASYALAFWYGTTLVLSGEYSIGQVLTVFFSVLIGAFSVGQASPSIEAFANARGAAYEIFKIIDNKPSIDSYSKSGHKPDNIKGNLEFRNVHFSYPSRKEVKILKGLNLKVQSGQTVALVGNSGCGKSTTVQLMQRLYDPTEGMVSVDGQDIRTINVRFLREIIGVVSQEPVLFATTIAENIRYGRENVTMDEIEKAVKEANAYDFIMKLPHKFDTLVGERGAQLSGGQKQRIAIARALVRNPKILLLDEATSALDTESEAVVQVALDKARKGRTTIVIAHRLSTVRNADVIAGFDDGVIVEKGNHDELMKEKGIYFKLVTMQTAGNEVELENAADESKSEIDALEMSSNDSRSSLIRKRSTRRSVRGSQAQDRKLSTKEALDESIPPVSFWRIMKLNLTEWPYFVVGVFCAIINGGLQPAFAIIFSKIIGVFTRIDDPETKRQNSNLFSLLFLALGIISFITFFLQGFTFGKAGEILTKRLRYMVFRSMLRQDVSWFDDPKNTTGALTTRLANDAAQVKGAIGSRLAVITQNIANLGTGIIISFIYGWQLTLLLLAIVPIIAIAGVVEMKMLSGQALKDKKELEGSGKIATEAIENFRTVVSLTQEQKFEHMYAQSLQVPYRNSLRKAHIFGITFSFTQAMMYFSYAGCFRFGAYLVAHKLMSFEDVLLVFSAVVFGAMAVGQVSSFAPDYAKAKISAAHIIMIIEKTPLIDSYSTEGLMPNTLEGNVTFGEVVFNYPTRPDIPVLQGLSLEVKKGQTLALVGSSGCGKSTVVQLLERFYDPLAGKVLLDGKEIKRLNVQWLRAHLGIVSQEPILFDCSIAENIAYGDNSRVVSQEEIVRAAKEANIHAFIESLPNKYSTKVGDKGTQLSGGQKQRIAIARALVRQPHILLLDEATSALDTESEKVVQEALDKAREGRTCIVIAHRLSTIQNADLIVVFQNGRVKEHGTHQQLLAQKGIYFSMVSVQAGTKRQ
Chain of IRAK4 (Q9NWZ3 whole entry): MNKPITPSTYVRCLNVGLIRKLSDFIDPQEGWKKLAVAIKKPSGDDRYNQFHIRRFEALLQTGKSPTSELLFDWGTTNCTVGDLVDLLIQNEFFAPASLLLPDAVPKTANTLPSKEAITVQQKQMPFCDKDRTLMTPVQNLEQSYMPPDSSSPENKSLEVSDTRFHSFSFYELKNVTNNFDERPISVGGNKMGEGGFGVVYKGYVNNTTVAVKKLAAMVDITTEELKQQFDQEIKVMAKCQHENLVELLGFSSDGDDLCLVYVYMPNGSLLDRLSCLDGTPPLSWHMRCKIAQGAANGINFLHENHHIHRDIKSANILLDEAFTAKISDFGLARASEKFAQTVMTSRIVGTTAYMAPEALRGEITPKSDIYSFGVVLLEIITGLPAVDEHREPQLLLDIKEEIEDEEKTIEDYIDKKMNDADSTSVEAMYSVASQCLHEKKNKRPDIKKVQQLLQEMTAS
Method for IRAK4: The 2-hour 1 mM ATP Biochemical Assay employed a MesoScale Detection (MSD) format.
The activity was quenched with 11 μl of 70 mM EDTA, pH 8.
To detect the phosphorylated biotinylated peptide substrate, 30 μl of the quenched reaction mixture was added to equivalent wells of a 384 well streptavidin coated MesoScale plate (Meso Scale Discovery #L21SA-1). After a 1 hour incubation of the plate for 1 hour at room temperature with gentle mixing, the plate wells were washed 3 times with 50 mM Tris, pH 7.5, 150 mM NaCl, 0.02% Tween-20.
A 25 μl volume of 1:500 anti-P-Threonine Rabbit polyclonal Antibody plus 1:500 Goat-anti-Rabbit Sulfo Tag Antibody (Meso Scale Discovery R32AB-1) in 50 mM Tris, pH 7.5, 150 mM NaCl, 0.02% Tween-20 plus 2% BSA was then added to each well. After a 1-hour incubation of the plate for 1 hour at room temperature with gentle mixing, the plate wells were washed, 3 times with 50 mM Tris, pH 7.5, 150 mM NaCl, 0.02% Tween-20.

One may read the IC50 as the concentration that inhibits the measured activity by half. By solubility (kinetic) is commonly meant the concentration staying in solution when a stock, usually in DMSO, is diluted into the medium. Broadly, the efflux ratio is a quotient of directional permeabilities that is used to spot active efflux. Turning to `CC12CC(c3cn4cc(C(=O)Nc5cccn(C6CC6)c5=O)c(OC5CCC5)cc4n3)(CO1)C2` [Example 27, 7-cyclobutoxy-N-(1-cyclopropyl-2-oxo-1,2-dihydropyridin-3-yl)-2-(1-methyl-2-oxabicyclo[2.1.1]hexan-4-yl)imidazo[1,2-a]pyridine-6-carboxamide], at IRAK4, the IC50 was 0.6 nM. In addition, the solubility (kinetic) at 24 h in data set [1] was determined as 0.0657 mg/mL (≈ 143 µM). The Kpuu (unbound brain-to-plasma partition coefficient) in data set [2] came to 0.42. For the same molecule, the efflux ratio at 120 min, 1 μM on MDR1 is 4.
The corresponding values for `CC(C)Oc1cc2nc([C@]34CC[C@](C)(C3)OC4)cn2cc1C(=O)Nc1cccn([C@H]2C[C@H]2C)c1=O` [Example 180, 7-isopropoxy-2-((1R,4S)-1-methyl-2-oxabicyclo[2.2.1]heptan-4-yl)-N-(1-((1S,2R)-2-methylcyclopropyl)-2-oxo-1,2-dihydropyridin-3-yl)imidazo[1,2-a]pyridine-6-carboxamide trifluoroacetate] are 0.2 nM, 0.023 mg/mL, 1.58 and 2.6.
`CC(C)Oc1cc2nc([C@@]34CC[C@@](C)(C3)OC4)cn2cc1C(=O)Nc1ccn(C)n1` (single isomer, unassigned) [Comparator 3C, reference compound] showed an IC50 on IRAK4 of 2.3 nM. In data set [1], the solubility (kinetic) at 24 h amounted to 0.0285 mg/mL (≈ 69.6 µM). The Kpuu (unbound brain-to-plasma partition coefficient) in data set [2] is 0.3. Further, the efflux ratio at 120 min, 1 μM at MDR1 worked out at 6.3.
Take `CC(C)Oc1nc2nc(C34COC(C)(C3)C4)cn2cc1C(=O)Nc1cccn(C2CC2(F)F)c1=O` (stereo not drawn) [Example 84, N-(1-(2,2-difluorocyclopropyl)-2-oxo-1,2-dihydropyridin-3-yl)-7-isopropoxy-2-(1-methyl-2-oxabicyclo[2.1.1]hexan-4-yl)imidazo[1,2-a]pyrimidine-6-carboxamide]: on IRAK4, inhibition was half-maximal at 0.6 nM (IC50). Further, the solubility (kinetic) at 24 h in data set [1] came to 0.0377 mg/mL (≈ 77.7 µM). Further, in data set [2], the Kpuu (unbound brain-to-plasma partition coefficient) amounted to 0.67. Moreover, the efflux ratio at 120 min, 1 μM on MDR1 was 7.4.
On the same counts, the results for `CC(C)Oc1c(C(=O)Nc2cccn(C3CC3)c2=O)cn2cc([C@@]34CC[C@@](C)(C3)OC4)nc2c1F` (single isomer, unassigned) [Example 67] are 1.3 nM, 0.0488 mg/mL (≈ 102 µM), 0.96 and 2.8.
On the same counts, the results for `CC(C)Oc1nc2nc([C@@]34CC[C@@](C)(C3)OC4)cn2cc1C(=O)Nc1cccn([C@H]2C[C@@H]2C)c1=O` (single isomer, unassigned) [Example 149] are 0.4 nM, 0.0345 mg/mL (≈ 72.2 µM), 1.34 and 2.8.
On the same counts, the results for `CC(C)Oc1nc2nc(C[C@@H]3CCOC3)cn2cc1C(=O)Nc1cccn(C2CC2)c1=O` (single isomer, unassigned) [Example 109] are 0.5 nM, 0.0502 mg/mL (≈ 115 µM), 0.25 and 7.1.
With `CC(C)Oc1nc2nc(C34CCC(C)(C3)OC4)cn2cc1C(=O)Nc1cccn([C@H]2C[C@H]2C)c1=O` (stereo in doubt) [Example 187, 7-isopropoxy-2-((1R,4S)-1-methyl-2-oxabicyclo[2.2.1]heptan-4-yl)-N-(1-((1S,2R)-2-methylcyclopropyl)-2-oxo-1,2-dihydropyridin-3-yl)imidazo[1,2-a]pyrimidine-6-carboxamide trifluoroacetate], the midpoint of inhibition against IRAK4, the IC50, lay at 0.2 nM. For the same molecule, the kinetic solubility at 24 h in data set [1] was 0.0551 mg/mL. Further, in data set [2], the Kpuu (unbound brain-to-plasma partition coefficient) worked out at 0.19. For the same molecule, at MDR1, the efflux ratio at 120 min, 1 μM is 10.9.
On the same counts, the results for `CC(C)Oc1cc2nc([C@]34CC[C@](C)(C3)OC4)cn2cc1C(=O)Nc1cccn([C@H]2C[C@@H]2F)c1=O` (single isomer, unassigned) [Example 119] are 0.7 nM, 0.079 mg/mL (≈ 164 µM), 0.73 and 4.2.
Take `CC[C@@H](C)Oc1nc2nc(C34COC(C)(C3)C4)cn2cc1C(=O)Nc1cccn(C2CC2)c1=O` (single isomer, unassigned) [Example 63]: 0.8 nM corresponded to half-maximal inhibition against IRAK4 (IC50). Moreover, in data set [1], the kinetic solubility at 24 h came out at 0.0671 mg/mL (≈ 145 µM). In data set [2], the Kpuu (unbound brain-to-plasma partition coefficient) came to 0.48. For the same molecule, on MDR1, the efflux ratio at 120 min, 1 μM amounted to 5.5.
The corresponding values for `C[C@@]12CC[C@@](c3cn4cc(C(=O)Nc5cccn(C6CC6)c5=O)c(OC5CCC5)cc4n3)(CO1)C2` (single isomer, unassigned) [Example 25] are 0.3 nM, 0.0667 mg/mL (≈ 141 µM), 0.36 and 3.2.
On the same counts, the results for `CC(C)Oc1nc2nc(C34CCC(C)(CC3)OC4)cn2cc1C(=O)Nc1ccn(C)n1` [Comparator 6C, 7-isopropoxy-N-(1-methyl-1H-pyrazol-3-yl)-2-(1-methyl-2-oxabicyclo[2.2.2]octan-4-yl)imidazo[1,2-a]pyrimidine-6-carboxamide, reference compound] are 0.9 nM, 0.0485 mg/mL (≈ 114 µM), 0.2 and 1.8.
The corresponding values for `CC(C)Oc1c(C(=O)Nc2cccn(C3CC3)c2=O)cn2cc(C34COC(C)(C3)C4)nc2c1F` [Example 61, N-(1-cyclopropyl-2-oxo-1,2-dihydropyridin-3-yl)-8-fluoro-7-isopropoxy-2-(1-methyl-2-oxabicyclo[2.1.1]hexan-4-yl)imidazo[1,2-a]pyridine-6-carboxamide] are 2 nM, 0.0658 mg/mL (≈ 141 µM), 0.45 and 2.8.
Regarding `CC[C@H](C)Oc1cc2nc(C34COC(CF)(C3)C4)cn2cc1C(=O)Nc1cccn(C2CC2)c1=O` (single isomer, unassigned) [Example 15], on IRAK4, the IC50 is 0.4 nM. In data set [1], this molecule gave a solubility (kinetic) at 24 h of 0.0786 mg/mL (≈ 164 µM). Further, in data set [2], the Kpuu (unbound brain-to-plasma partition coefficient) turned out to be 0.41. In addition, the efflux ratio at 120 min, 1 μM at MDR1 turned out to be 8.1.
Molecule `CC(C)Oc1cc2nc(C34COC(C)(C3)C4)cn2cc1C(=O)Nc1cccn(C)c1=O` [Comparator 1D, 7-isopropoxy-N-(1-methyl-2-oxo-1,2-dihydropyridin-3-yl)-2-(1-methyl-2-oxabicyclo[2.1.1]hexan-4-yl)imidazo[1,2-a]pyridine-6-carboxamide, reference compound] registered an IC50 against IRAK4 of 0.6 nM. In data set [1], this molecule had a solubility (kinetic) at 24 h of 0.0632 mg/mL (≈ 150 µM). Further, the Kpuu (unbound brain-to-plasma partition coefficient) in data set [2] stood at 0.9. For the same molecule, the efflux ratio at 120 min, 1 μM at MDR1 came out at 8.
The corresponding values for `CC(C)Oc1cc2nc([C@@]34CC[C@@](C)(C3)OC4)cn2cc1C(=O)Nc1cccn(C2CC2)c1=O` (single isomer, unassigned) [Example 4] are 0.2 nM, 0.0574 mg/mL (≈ 124 µM), 0.26 and 7.1.
On the same counts, the results for `Cc1cnc2c(NC(=O)c3cn4cc(C56COC(C)(C5)C6)nc4cc3OC(C)C)cnn2c1` [Comparator 1B, 7-isopropoxy-2-(1-methyl-2-oxabicyclo[2.1.1]hexan-4-yl)-N-(6-methylpyrazolo[1,5-a]pyrimidin-3-yl)imidazo[1,2-a]pyridine-6-carboxamide, reference compound] are 0.2 nM, 0.0003 mg/mL (≈ 0.672 µM), 0.3 and 4.3.
On the same counts, the results for `CC[C@H](C)Oc1nc2nc([C@@]34CC[C@@](C)(C3)OC4)cn2cc1C(=O)Nc1cccn(C2CC2)c1=O` [Example 49, 7-((S)-sec-butoxy)-N-(1-cyclopropyl-2-oxo-1,2-dihydropyridin-3-yl)-2-((1S,4R)-1-methyl-2-oxabicyclo[2.2.1]heptan-4-yl)imidazo[1,2-a]pyrimidine-6-carboxamide] are 0.4 nM, 0.0561 mg/mL (≈ 117 µM), 0.66 and 3.6.
`CC(C)Oc1nc2nc([C@@]34CC[C@@](C)(C3)OC4)cn2cc1C(=O)Nc1cccn(C)c1=O` [Comparator 4D, 7-isopropoxy-N-(1-methyl-2-oxo-1,2-dihydropyridin-3-yl)-2-((1S,4R)-1-methyl-2-oxabicyclo[2.2.1]heptan-4-yl)imidazo[1,2-a]pyrimidine-6-carboxamide, reference compound] showed an IC50 on IRAK4 of 0.5 nM. The molecule further registered a solubility (kinetic) at 24 h in data set [1] of 0.0588 mg/mL (≈ 134 µM). The Kpuu (unbound brain-to-plasma partition coefficient) in data set [2] was 0.2. Besides, the efflux ratio at 120 min, 1 μM on MDR1 is 5.6.
The corresponding values for `CC(C)Oc1cc2nc(C34CCC(C)(CC3)OC4)cn2cc1C(=O)Nc1cccn(C2CC2)c1=O` [Example 3, N-(1-cyclopropyl-2-oxo-1,2-dihydropyridin-3-yl)-7-isopropoxy-2-(1-methyl-2-oxabicyclo[2.2.2]octan-4-yl)imidazo[1,2-a]pyridine-6-carboxamide] are 0.2 nM, 0.036 mg/mL (≈ 75.5 µM), 0.25 and 2.9.
On the same counts, the results for `CC(C)Oc1nc2nc(C34COC(C)(C3)C4)cn2cc1C(=O)Nc1cccn([C@H]2CC2(C)C)c1=O` (single isomer, unassigned) [Example 79] are 0.7 nM, 0.0457 mg/mL (≈ 95.7 µM), 0.89 and 2.9.
